Laboratory results as given in ChEMBL document CHEMBL1201862, “PubChem BioAssay data set” (2004).
Calls of active or inactive are those of the source.

Key:
[1] = molecular target: Peroxisome proliferator-activated receptor gamma/Nuclear receptor coactivator 1 (Homo sapiens, UniProt P37231); test: (§1) TR-FRET dose response biochemical High Throughput Screening assay for agonists of the steroid receptor coactivator 1 (SRC-1) recruitment by the peroxisome proliferator-activated receptor gamma (PPAR gamma): non-selective agonists. [Related pubchem assays (depositor defined):AID1300, AID1808, AID504735, AID631]; assay type: protein assay
[2] = molecular target: Peroxisome proliferator-activated receptor gamma/Nuclear receptor coactivator 3 (Homo sapiens, UniProt P37231); test: as §1, with “3 (SRC-3)” for “1 (SRC-1)”, “assays: 1301 (Confirmation screen.), 1048 (Primary screen.)]” for “assays (depositor defined):AID1300, AID1808, AID504735, AID631]”; assay type: functional
[3] = yeast RAM network inhibitors, dose response, S. cerevisiae (AID 1307); assay type: functional
[4] = molecular target: Peroxisome proliferator-activated receptor gamma/Nuclear receptor coactivator 2 (Homo sapiens, UniProt P37231); test: TR-FRET dose response biochemical High Throughput Screening assay for agonists of the steroid receptor coactivator 2 (SRC-2) recruitment by the peroxisome proliferator-activated receptor gamma (PPAR gamma): non-selective agonists. [Related pubchem assays: 1297, 1032 ]; assay type: functional
Nonstructural protein 1 = Nonstructural protein 1 (Influenza A virus, UniProt Q194T2); assay type: functional, Influenza A virus (A/California/07/2009(H1N1))
Chain of Nonstructural protein 1 (Q194T2 whole entry): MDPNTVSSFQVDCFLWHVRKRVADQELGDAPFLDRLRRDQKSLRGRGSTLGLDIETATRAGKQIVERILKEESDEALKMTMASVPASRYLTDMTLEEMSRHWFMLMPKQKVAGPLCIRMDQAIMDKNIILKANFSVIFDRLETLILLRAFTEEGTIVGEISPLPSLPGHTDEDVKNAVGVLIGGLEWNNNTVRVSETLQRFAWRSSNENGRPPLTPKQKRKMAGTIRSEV

[5] = molecular target: 26S proteasome non-ATPase regulatory subunit 14 (Homo sapiens, UniProt O00487); test: inhibition of proteasome subunit RPN11 – biochemical, fluorescence polarization, uHTS hits, confirmation (AID 602368); assay type: functional
Chain of 26S proteasome non-ATPase regulatory subunit 14 (O00487 whole entry): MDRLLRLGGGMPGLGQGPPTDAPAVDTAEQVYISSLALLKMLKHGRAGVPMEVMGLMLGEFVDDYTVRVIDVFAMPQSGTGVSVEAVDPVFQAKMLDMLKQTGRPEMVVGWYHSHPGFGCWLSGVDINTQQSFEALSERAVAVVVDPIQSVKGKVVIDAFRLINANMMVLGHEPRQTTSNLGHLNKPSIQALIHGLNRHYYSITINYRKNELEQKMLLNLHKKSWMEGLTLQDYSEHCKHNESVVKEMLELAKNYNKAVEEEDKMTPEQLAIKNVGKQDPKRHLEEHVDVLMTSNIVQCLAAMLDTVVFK

[6] = molecular target: 72 kDa type IV collagenase (Homo sapiens, UniProt P08253); test: Dose Response validation of uHTS RPN11 inhibitor hits using a MMP-2 Fluorescence assay.; assay type: functional
Prothrombin = Prothrombin (Bos taurus, UniProt P00735); test: thrombin inhibition, dose response, biochemical, fluorescence polarization, uHTS hits (AID 602369); assay type: functional
[7] = molecular target: T1, Induced myeloid leukemia cell differentiation protein Mcl-1 (Homo sapiens, UniProt Q07820); test: MCL1-BIM BH3 interaction inhibitors, dose response, biochemical, fluorescence polarization, BIM-BH3 peptide, 1536-well (AID 2217)
T1 sequence (Q07820 whole entry): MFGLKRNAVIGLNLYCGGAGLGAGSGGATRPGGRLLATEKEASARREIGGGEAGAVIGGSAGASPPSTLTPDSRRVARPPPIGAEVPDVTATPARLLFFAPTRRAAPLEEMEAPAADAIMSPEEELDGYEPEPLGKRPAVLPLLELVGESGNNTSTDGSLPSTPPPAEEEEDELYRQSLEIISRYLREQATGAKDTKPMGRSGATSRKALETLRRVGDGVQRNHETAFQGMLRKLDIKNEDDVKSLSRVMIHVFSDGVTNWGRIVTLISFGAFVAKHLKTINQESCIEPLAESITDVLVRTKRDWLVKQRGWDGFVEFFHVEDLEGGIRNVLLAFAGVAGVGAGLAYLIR

Bcl-2-like protein 1 = Bcl-2-like protein 1 (Homo sapiens, UniProt Q07817); test: BCL-XL inhibitors, dose response, selectivity assay for MCL1 inhibitor project, biochemical, fluorescence polarization, 1536-well (AID 2218)
Chain of Bcl-2-like protein 1 (Q07817 whole entry): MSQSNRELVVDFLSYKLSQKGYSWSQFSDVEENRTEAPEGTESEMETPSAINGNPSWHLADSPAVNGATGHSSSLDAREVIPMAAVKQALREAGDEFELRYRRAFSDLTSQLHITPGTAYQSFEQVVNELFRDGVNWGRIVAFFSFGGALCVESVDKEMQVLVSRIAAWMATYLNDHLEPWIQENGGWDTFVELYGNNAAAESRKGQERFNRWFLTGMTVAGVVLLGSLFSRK

Genome polyprotein = Genome polyprotein (dengue virus type 2, UniProt P29990); test: Dengue-2 NS5 methyltransferase inhibitors, primary screen, biochemical, confirmation dose response (AID 588689); assay type: functional
NADPH oxidase 1 = NADPH oxidase 1 (Homo sapiens, UniProt Q9Y5S8); assay type: functional, cell-based;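 note: Cell-based assay with luminescence read-out, IC50 derived from inhibitor dose-response curves; intracellular ROS from endogenous NOX1 in intact HT29 colon cancer cells; potency of inhibitors that lower the ROS luminescence signal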
Chain of NADPH oxidase 1 (Q9Y5S8 whole entry): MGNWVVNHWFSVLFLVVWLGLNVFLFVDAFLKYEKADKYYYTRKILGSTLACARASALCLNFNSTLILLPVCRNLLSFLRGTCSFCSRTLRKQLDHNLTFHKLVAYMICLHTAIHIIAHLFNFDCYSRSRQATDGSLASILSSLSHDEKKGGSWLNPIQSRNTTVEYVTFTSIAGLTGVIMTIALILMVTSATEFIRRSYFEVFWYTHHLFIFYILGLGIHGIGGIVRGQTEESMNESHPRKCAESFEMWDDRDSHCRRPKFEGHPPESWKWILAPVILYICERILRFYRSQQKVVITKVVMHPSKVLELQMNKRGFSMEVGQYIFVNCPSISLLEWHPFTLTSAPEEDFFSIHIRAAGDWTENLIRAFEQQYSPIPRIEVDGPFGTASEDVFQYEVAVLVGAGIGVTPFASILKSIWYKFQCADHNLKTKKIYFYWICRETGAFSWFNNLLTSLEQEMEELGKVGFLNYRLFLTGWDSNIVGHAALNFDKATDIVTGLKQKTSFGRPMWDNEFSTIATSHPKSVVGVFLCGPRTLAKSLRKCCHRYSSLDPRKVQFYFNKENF

Bcl-2-like protein 10 = molecular target: T2, Bcl-2-like protein 10 (Homo sapiens, UniProt Q9HD36); test: displacers of TR3 peptide from Bcl-B, primary screen, selectivity assay for Bfl-1 inhibitor project, biochemical, fluorescence polarization, FITC-TR3 peptide (AID 748);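 note: fluorescence polarization from a fluorescein-labelled TR3 peptide binding purified Bcl-B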
T2 sequence (Q9HD36 whole entry): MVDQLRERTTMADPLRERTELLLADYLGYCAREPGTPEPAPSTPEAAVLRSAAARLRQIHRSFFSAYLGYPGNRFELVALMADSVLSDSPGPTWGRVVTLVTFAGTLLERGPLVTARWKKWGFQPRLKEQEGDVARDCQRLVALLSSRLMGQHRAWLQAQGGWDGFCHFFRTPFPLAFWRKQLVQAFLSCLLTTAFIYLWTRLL

[8] = molecular target: Protein-tyrosine kinase 2-beta (Homo sapiens, UniProt Q14289);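 note: potency of inhibitors of PYK2 kinase phosphorylation of poly-GT substrate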
Chain of Protein-tyrosine kinase 2-beta (Q14289 whole entry): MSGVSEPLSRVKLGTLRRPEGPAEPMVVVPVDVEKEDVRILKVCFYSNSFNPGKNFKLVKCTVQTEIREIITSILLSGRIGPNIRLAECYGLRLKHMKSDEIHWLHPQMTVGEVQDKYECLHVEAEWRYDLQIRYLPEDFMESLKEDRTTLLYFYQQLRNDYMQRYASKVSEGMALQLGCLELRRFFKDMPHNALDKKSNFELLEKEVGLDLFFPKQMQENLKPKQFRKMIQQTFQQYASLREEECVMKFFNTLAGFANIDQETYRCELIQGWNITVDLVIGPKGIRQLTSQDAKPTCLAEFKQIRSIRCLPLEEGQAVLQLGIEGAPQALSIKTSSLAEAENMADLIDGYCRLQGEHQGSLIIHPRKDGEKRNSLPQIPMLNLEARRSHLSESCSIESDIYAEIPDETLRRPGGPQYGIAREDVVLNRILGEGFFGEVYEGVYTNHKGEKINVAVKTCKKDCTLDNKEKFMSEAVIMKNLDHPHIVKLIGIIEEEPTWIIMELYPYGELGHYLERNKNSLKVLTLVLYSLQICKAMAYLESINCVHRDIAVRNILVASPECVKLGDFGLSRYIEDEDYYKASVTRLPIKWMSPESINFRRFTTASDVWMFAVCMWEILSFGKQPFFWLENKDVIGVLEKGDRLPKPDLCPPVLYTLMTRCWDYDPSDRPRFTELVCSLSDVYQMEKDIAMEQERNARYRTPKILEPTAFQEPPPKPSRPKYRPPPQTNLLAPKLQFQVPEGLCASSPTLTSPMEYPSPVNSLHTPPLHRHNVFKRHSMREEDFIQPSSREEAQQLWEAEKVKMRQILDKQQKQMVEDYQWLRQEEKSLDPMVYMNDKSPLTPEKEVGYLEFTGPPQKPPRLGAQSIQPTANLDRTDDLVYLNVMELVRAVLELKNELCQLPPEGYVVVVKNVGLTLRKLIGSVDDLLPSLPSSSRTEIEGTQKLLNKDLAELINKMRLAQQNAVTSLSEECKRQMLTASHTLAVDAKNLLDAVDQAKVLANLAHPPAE

[9] = molecular target: T1, Induced myeloid leukemia cell differentiation protein Mcl-1; assay type: functional
[10] = molecular target: T3, Heat shock factor protein 1 (Mus musculus, UniProt P38532); test: inhibition of MG132-induced HSE-luciferase signal, confirmation, cell-based, NIH3T3, luminescence, dose retest (AID 2382); assay type: functional;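 note: NIH3T3 fibroblasts with HSF1-driven luciferase reporter stressed by proteasome inhibitor MG132; luminescence from HSF1-driven luciferase expression after 8 hours of MG132 stress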
T3 sequence (P38532 whole entry): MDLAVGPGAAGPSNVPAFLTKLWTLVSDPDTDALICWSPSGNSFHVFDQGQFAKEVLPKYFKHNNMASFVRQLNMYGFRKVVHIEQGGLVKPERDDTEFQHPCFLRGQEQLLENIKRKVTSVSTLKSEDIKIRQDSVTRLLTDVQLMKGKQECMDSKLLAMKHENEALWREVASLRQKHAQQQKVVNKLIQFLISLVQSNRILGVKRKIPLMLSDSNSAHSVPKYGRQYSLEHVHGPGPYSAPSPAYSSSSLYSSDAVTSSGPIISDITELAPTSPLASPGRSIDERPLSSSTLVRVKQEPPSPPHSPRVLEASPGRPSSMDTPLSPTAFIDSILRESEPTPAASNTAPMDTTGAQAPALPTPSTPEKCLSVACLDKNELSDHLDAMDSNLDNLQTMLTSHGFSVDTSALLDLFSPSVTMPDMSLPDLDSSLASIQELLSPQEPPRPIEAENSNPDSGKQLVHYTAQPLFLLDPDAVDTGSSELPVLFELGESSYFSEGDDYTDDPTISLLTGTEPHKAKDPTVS

[11] = molecular target: T4, Mannose-6-phosphate isomerase (Homo sapiens, UniProt P34949); test: inhibitors of human PMI, primary screen, biochemical, fluorescence intensity, coupled assay (AID 1209)
T4 sequence (P34949 whole entry): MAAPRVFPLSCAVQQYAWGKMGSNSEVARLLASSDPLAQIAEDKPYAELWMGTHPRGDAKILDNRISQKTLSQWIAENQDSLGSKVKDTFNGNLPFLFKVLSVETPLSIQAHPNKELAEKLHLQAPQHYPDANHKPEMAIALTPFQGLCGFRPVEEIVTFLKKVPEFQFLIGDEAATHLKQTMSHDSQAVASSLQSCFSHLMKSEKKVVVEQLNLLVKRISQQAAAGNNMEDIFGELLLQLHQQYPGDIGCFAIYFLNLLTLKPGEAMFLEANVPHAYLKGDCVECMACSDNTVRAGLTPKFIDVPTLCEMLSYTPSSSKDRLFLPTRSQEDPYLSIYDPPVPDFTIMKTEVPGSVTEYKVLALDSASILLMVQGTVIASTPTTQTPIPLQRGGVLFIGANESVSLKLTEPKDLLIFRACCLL

[12] = molecular target: T4, Mannose-6-phosphate isomerase; test: human PMI inhibitors, high substrate, primary screen, biochemical, fluorescence intensity, high mannose 6-phosphate (AID 1220)
INS1 = test: beta cell apoptosis inhibitors, cytokine rescue, dose response, luminescence, retest (AID 449756); assay type: functional, cell-based; settings: Rattus norvegicus;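 note: cell death triggered by IL-1 beta plus TNF-alpha plus IFN-gamma mixture; protective hits raise ATP signal compared with cytokine alone wells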
[13] = molecular target: T5, Polyadenylate-binding protein 1 (Homo sapiens, UniProt P11940); test: PABP1 MLLE–PAM2 interaction inhibitors, dose response, miRNA deadenylation inhibitor project, biochemical, fluorescence polarization, Cy5-PAM2 peptide, secondary (AID 602260); assay type: functional; settings: read-out: IC50_Mean
T5 sequence (P11940 whole entry): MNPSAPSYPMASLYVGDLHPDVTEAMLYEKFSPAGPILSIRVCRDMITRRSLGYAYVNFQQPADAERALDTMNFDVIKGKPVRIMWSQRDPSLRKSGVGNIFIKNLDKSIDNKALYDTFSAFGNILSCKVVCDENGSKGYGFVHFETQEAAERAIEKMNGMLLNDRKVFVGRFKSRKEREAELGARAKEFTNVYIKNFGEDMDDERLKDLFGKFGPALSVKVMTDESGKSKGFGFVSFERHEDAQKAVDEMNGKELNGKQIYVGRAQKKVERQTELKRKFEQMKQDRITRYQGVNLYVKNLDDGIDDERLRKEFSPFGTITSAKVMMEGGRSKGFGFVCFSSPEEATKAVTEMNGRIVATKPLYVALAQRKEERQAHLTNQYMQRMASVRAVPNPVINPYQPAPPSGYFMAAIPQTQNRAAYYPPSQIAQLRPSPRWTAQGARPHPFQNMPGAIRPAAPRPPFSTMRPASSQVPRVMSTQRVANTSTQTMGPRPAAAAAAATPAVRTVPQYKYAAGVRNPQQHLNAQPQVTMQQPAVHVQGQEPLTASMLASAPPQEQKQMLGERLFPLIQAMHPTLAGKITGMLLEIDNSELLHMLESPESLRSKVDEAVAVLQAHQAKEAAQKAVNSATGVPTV

[14] = Shn3 3'UTR reporter inhibitors, dose response, cell-based, Clone20 osteoblasts, firefly luciferase, cherry-picked (AID 624132); assay type: functional;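 note: firefly luciferase luminescence from reporter carrying the Shn3 3'UTR in osteoblasts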
[15] = molecular target: T5, Polyadenylate-binding protein 1; test: PABP1 MLLE–PAM2 binding inhibitor potency, dose response, biochemical, fluorescence polarization, FITC-PAM2 peptide (AID 602259); assay type: functional; settings: read-out: IC50_Mean
[16] = HepG2 cell cytotoxicity, dose response, cytotoxicity control for Shn3 inhibitor project, CellTiter-Glo, cherry-picked (AID 624134); assay type: functional, cell-based
[17] = control 3'UTR Renilla luciferase suppression, dose response, counter-screen for Shn3 inhibitor project, cell-based, Clone20-Shn3RL, cherry-picked (AID 624133); assay type: functional
[18] = molecular target: Sphingosine 1-phosphate receptor 2 (Homo sapiens, UniProt O95136); test: Dose Response Cell Based Assay for Agonists of the S1P2 Receptor of Purchased Analogues. [Related pubchem assays: 729, 843, 854, 736 ]; assay type: functional
Chain of Sphingosine 1-phosphate receptor 2 (O95136 whole entry): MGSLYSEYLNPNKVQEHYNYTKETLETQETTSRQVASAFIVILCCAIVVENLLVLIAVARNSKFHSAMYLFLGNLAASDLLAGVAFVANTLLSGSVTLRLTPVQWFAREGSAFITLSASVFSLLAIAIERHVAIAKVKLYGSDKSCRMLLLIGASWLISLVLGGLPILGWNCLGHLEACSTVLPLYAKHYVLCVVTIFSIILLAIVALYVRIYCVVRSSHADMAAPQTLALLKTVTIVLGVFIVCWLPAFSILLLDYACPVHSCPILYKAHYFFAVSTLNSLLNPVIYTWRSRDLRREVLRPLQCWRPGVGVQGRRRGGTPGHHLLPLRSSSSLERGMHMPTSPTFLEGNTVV

[19] = Late stage counterscreen results from the probe development effort to identify activators of signal transducer and activator of transcription 1 (STAT1): luminescence-based cell-based dose response assay to identify cytotoxic compounds.; assay type: functional
[20] = molecular target: T6, Endoribonuclease toxin MazF (Escherichia coli K-12, UniProt P0AE70); test: MazF toxin RNase activators, dose response, biochemical, fluorescence, single-stranded RNA substrate, uHTS hits (AID 588481); assay type: functional
T6 sequence (P0AE70 whole entry): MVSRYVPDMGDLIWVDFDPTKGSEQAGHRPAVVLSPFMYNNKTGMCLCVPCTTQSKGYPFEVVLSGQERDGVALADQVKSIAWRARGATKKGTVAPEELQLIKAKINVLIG

[21] = molecular target: T6, Endoribonuclease toxin MazF; test: fluorescent RNA oligo signal without MazF, dose response, counter-screen for MazEF activator project, biochemical, fluorescence, single-stranded RNase substrate (AID 588502); assay type: functional
[22] = molecular target: T7, Tyrosine-protein phosphatase non-receptor type 7 (Homo sapiens, UniProt P35236); test: inhibitors of human HePTP phosphatase, […], biochemical, absorbance, leukemia target (AID 521); assay type: functional
T7 sequence (P35236 whole entry): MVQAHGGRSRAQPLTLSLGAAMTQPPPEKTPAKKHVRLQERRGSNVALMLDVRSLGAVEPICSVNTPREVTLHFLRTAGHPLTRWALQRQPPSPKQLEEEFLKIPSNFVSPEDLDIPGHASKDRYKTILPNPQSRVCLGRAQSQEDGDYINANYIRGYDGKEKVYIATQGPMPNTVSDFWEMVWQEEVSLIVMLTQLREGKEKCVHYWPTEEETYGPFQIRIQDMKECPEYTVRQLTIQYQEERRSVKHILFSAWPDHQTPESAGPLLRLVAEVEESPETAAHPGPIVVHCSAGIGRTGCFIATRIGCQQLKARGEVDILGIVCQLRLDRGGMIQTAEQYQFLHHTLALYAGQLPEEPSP

[23] = cytotoxicity in HPDE-C7 cells, cell-based, fluorescence, HTS (AID 430); assay type: functional; settings: Homo sapiens
[24] = cytotoxicity in KRAS-transformed pancreatic duct cells, primary screen, cell-based, fluorescence, HTS (AID 431); assay type: functional; settings: Homo sapiens;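 note: cell line used: HPDE-C7K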
Estrogen receptor beta [25] = molecular target: T8, Estrogen receptor beta (Homo sapiens, UniProt Q92731);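 note: recombinant ER-beta bound to coactivator SRC1 peptide in presence of estradiol agonist; inhibitors block coactivator peptide binding and lower the FRET signal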
T8 sequence (Q92731 whole entry): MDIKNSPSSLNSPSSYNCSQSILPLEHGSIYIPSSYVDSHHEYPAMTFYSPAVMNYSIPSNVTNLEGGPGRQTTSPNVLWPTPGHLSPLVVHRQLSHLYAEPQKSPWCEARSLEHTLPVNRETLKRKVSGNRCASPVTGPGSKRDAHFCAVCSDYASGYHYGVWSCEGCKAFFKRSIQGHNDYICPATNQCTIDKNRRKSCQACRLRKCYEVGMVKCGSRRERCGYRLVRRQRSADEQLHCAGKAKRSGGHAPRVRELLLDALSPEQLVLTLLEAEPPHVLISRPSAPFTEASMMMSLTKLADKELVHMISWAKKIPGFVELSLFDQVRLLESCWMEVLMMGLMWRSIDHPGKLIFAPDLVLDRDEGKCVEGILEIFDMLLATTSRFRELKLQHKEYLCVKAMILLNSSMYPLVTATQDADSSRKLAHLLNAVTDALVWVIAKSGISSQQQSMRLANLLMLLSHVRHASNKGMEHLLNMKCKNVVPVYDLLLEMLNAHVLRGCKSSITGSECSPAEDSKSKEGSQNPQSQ

Estrogen receptor beta [26] = molecular target: T8, Estrogen receptor beta; test: ERβ–SRC-3 coactivator interaction inhibitors, confirmation, orthogonal assay, biochemical, ELISA, streptavidin-HRP readout (AID 1060)
[27] = molecular target: T3, Heat shock factor protein 1; test: HSF1 potentiators in luciferase reporter cells, confirmation, cell-based, NIH3T3, luminescence, dose retest (AID 435004); assay type: functional;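 note: stress induced by proteasome inhibitor MG132 added 30 min after compound; luciferase reporter driven by HSF1 response element in NIH3T3 cells; actives raise luminescence as potentiators of the MG132 stress response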
Cytochrome P450 2D6 = Cytochrome P450 2D6 (Homo sapiens, UniProt P10635);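 note: CYP2D6 member of a cytochrome P450 panel assay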
Chain of Cytochrome P450 2D6 (P10635 whole entry): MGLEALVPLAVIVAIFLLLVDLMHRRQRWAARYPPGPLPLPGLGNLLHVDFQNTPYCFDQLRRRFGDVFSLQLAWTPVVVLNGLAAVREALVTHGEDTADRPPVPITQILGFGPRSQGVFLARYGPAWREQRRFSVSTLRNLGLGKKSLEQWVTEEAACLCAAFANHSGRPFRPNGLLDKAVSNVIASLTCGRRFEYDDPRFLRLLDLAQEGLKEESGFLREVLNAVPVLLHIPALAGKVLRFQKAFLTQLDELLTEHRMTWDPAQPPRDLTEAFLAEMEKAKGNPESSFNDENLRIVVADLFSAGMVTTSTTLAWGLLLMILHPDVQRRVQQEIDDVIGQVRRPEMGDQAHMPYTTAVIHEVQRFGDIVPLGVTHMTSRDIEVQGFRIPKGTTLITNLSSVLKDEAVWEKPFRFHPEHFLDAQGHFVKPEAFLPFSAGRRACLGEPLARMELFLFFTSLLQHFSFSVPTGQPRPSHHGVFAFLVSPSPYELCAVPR

CN(C)c1ccc(/C=C/C=C2/C(=O)NC(=O)N(c3ccccc3)C2=O)cc1
EC50 [1]: > 2.94 µM (inactive) | EC50 [2]: > 79.4 µM (not active) | IC50 [3]: 317 µM (active) | EC50 [4]: 4.13 µM (active) | IC50 (Nonstructural protein 1): 12.1 µM (active) | IC50 [5]: 28.2 µM (active) | IC50 [6]: 71.2 µM (active) | IC50 (Prothrombin): 19.6 µM (active)

CCc1sc(C(C2C(=O)CC(C)(C)CC2=O)C2C(=O)CC(C)(C)CC2=O)cc1[N+](=O)[O-]
IC50 [7]: 6.08 µM (active) | IC50 (Bcl-2-like protein 1): > 109 µM (not active) | IC50 (Genome polyprotein): 16.4 µM (active)

O=C(CCC(=O)Nc1ccccc1)Nc1ccccc1
IC50 (NADPH oxidase 1): > 17 µM (not active)

Cn1c(SCC(=O)Nc2ccc3nc(SCC(=O)N4CCCC4)sc3c2)nnc1-c1ccc(N)cc1
IC50 (Bcl-2-like protein 10): 58.3 µM (inactive) | IC50 [8]: 2.5 µM (active) | IC50 [9]: 1.82 µM (active)

Oc1ccc(CN2CCCc3ccccc32)c2cccnc12
EC50 [10]: 29 µM (active) | IC50 [11]: > 50 µM (not active) | IC50 [12]: > 50 µM (not active) | IC50 (Nonstructural protein 1): 32.2 µM (active) | AC50 (INS1): 11.8 µM (active) | IC50 [13]: > 66 µM (inactive) | AC50 [14]: 5.4 µM (active) | IC50 [15]: > 66 µM (inactive) | AC50 [16]: 8.25 µM (active) | AC50 [17]: 17.3 µM (active)

Cc1cc(C(=O)Cn2cnc3c(oc4ccccc43)c2=O)c(C)n1Cc1ccccc1
EC50 [18]: > 30 µM (not active)

CCN(CC)c1ccc2cc(C(=O)Nc3ccccn3)c(=O)oc2c1
IC50 [19]: > 55.7 µM (not active) | EC50 [20]: > 99 µM (inactive) | EC50 [21]: > 99 µM (inactive)

CCn1c(SCC(=O)N2CCOCC2)nc2oc3c(Cl)cc(Cl)cc3c(=O)c2c1=O
IC50 [22]: > 100 µM (not active) | EC50 [23]: > 20 µM (not active) | EC50 [24]: > 20 µM (not active) | IC50 (Estrogen receptor beta [25]): 17.2 µM (active) | IC50 (Estrogen receptor beta [26]): 13.3 µM (not active) | EC50 [27]: 16.1 µM (inconclusive) | AC50 (Cytochrome P450 2D6): 15.8 µM (inconclusive)
